Measured values published in the NIST ThermoML archive (doi:10.1007/s10765-012-1309-7).
Numbers after ± are expanded uncertainties.

Conditions: Liquid, Capillary tube (Ostwald / Ubbelohde) method

CC(C)C [2-methylpropane]
Conditions	kinematic viscosity [m2/s]
285.13 K	3.1e-07 ± 9.6e-09
290.11 K	2.95e-07 ± 9.1e-09
295.11 K	2.87e-07 ± 8.9e-09
300.41 K	2.72e-07 ± 8.4e-09
303.37 K	2.67e-07 ± 8.3e-09
309.08 K	2.55e-07 ± 7.9e-09
313.12 K	2.46e-07 ± 7.6e-09
315.07 K	2.42e-07 ± 7.5e-09
318.2 K	2.38e-07 ± 7.4e-09
320.12 K	2.35e-07 ± 7.3e-09
323.83 K	2.25e-07 ± 7e-09
326.11 K	2.21e-07 ± 6.9e-09
330.11 K	2.14e-07 ± 6.7e-09
333.14 K	2.07e-07 ± 6.4e-09
335.12 K	2.09e-07 ± 6.5e-09
340.12 K	1.97e-07 ± 6.2e-09
340.15 K	1.97e-07 ± 6.2e-09
345.15 K	1.9e-07 ± 5.9e-09

CCF [fluoroethane]
Conditions	kinematic viscosity [m2/s]
233.15 K	2.93e-07 ± 9.1e-09
238.15 K	2.81e-07 ± 8.7e-09
243.15 K	2.7e-07 ± 8.4e-09
248.11 K	2.58e-07 ± 8e-09
253.15 K	2.46e-07 ± 7.7e-09
258.12 K	2.37e-07 ± 7.4e-09
263.17 K	2.28e-07 ± 7.1e-09
268.16 K	2.17e-07 ± 6.8e-09
273.16 K	2.09e-07 ± 6.5e-09
278.16 K	2.01e-07 ± 6.3e-09
283.15 K	1.92e-07 ± 6e-09
288.13 K	1.85e-07 ± 5.8e-09
293.18 K	1.78e-07 ± 5.6e-09
298.15 K	1.72e-07 ± 5.4e-09
303.12 K	1.66e-07 ± 5.2e-09
308.11 K	1.62e-07 ± 5.1e-09
313.15 K	1.54e-07 ± 4.9e-09
318.15 K	1.51e-07 ± 4.8e-09
320.16 K	1.49e-07 ± 4.7e-09
328.16 K	1.41e-07 ± 4.5e-09
333.15 K	1.37e-07 ± 4.3e-09
338.15 K	1.31e-07 ± 4.2e-09
343.13 K	1.28e-07 ± 4.1e-09
348.15 K	1.23e-07 ± 3.9e-09
353.17 K	1.21e-07 ± 3.8e-09
355.16 K	1.2e-07 ± 3.8e-09
360.16 K	1.16e-07 ± 3.7e-09
366.08 K	1.12e-07 ± 3.6e-09
371.36 K	1.08e-07 ± 3.5e-09
